Assay results from the NIST ThermoML archive (doi:10.1021/je800316b).
± gives the expanded uncertainty stated by the source.

Details: Liquid

CCOS(=O)(=O)[O-].CCn1cc[n+](C)c1 [1-ethyl-3-methylimidazolium ethyl sulfate]
mass density [kg/m3]
Details	100 kPa	2500 kPa	5000 kPa	7500 kPa	10000 kPa	15000 kPa	20000 kPa	25000 kPa	30000 kPa	35000 kPa
293.15 K	1246.9 ± 2.3	1249 ± 2.4	1250.2 ± 2.5	1251.3 ± 2.7	1252.3 ± 2.8	1254.3 ± 3.1	1256.5 ± 3.4	1258.5 ± 3.7	1260.5 ± 4	1262.4 ± 4.3
298.15 K	1244.3 ± 2.3	1245.2 ± 2.4	1246.3 ± 2.5	1247.4 ± 2.6	1248.4 ± 2.8	1250.6 ± 3	1252.7 ± 3.3	1254.8 ± 3.6	1256.6 ± 4	1258.7 ± 4.3
303.15 K	1240.8 ± 2.3	1241.6 ± 2.4	1242.7 ± 2.5	1243.8 ± 2.6	1244.9 ± 2.8	1247 ± 3	1249.1 ± 3.3	1251.1 ± 3.6	1253.2 ± 3.9	1255.2 ± 4.3
313.15 K	1233.1 ± 2.3	1234 ± 2.4	1235.1 ± 2.5	1236.2 ± 2.6	1237.3 ± 2.7	1239.5 ± 3	1241.6 ± 3.2	1243.7 ± 3.5	1245.8 ± 3.8	1247.9 ± 4.2
333.15 K	1218.3 ± 2.3	1219.2 ± 2.4	1220.4 ± 2.5	1221.6 ± 2.6	1222.7 ± 2.7	1225 ± 2.9	1227.2 ± 3.1	1229.3 ± 3.4	1231.5 ± 3.7	1233.6 ± 4
353.15 K	1204.2 ± 2.3	1205.3 ± 2.3	1206.6 ± 2.4	1207.8 ± 2.5	1209 ± 2.6	1211.4 ± 2.8	1213.8 ± 3.1	1216.1 ± 3.3	1218.4 ± 3.6	1220.6 ± 3.9
373.15 K	1190.1 ± 2.3	1191.3 ± 2.3	1192.6 ± 2.4	1193.9 ± 2.5	1195.2 ± 2.6	1197.7 ± 2.8	1200.2 ± 3	1202.6 ± 3.2	1204.9 ± 3.5	1207.3 ± 3.7
393.15 K	1176.6 ± 2.2	1178 ± 2.3	1179.3 ± 2.4	1180.7 ± 2.4	1182 ± 2.5	1184.6 ± 2.7	1187.2 ± 2.9	1189.7 ± 3.1	1192.2 ± 3.3	1194.6 ± 3.6

CCn1cc[n+](C)c1.COS(=O)(=O)[O-] [1-ethyl-3-methylimidazolium methylsulfate]
mass density [kg/m3]
Details	100 kPa	2500 kPa	5000 kPa	7500 kPa	10000 kPa	15000 kPa	20000 kPa	25000 kPa	30000 kPa	35000 kPa
293.15 K	1292.1 ± 2.4	1293 ± 2.5	1294 ± 2.7	1295 ± 2.8	1296 ± 3	1298 ± 3.3	1299.9 ± 3.7	1301.8 ± 4	1303.7 ± 4.4	1305.6 ± 4.9
298.15 K	1288 ± 2.4	1289.1 ± 2.5	1290.1 ± 2.7	1291.1 ± 2.8	1292.1 ± 3	1294.1 ± 3.3	1296.1 ± 3.6	1298 ± 4	1300 ± 4.4	1301.9 ± 4.8
303.15 K	1283.3 ± 2.4	1284.3 ± 2.5	1285.4 ± 2.6	1286.4 ± 2.8	1287.4 ± 2.9	1289.5 ± 3.3	1291.4 ± 3.6	1293.4 ± 4	1295.3 ± 4.4	1297.3 ± 4.8
313.15 K	1276.6 ± 2.4	1277.8 ± 2.5	1278.9 ± 2.6	1279.9 ± 2.8	1281 ± 2.9	1283 ± 3.2	1285.1 ± 3.6	1287.1 ± 3.9	1289.1 ± 4.3	1291.1 ± 4.7
333.15 K	1260.9 ± 2.4	1262.3 ± 2.5	1263.4 ± 2.6	1264.5 ± 2.7	1265.6 ± 2.8	1267.8 ± 3.1	1269.9 ± 3.4	1272 ± 3.8	1274 ± 4.1	1276.1 ± 4.5
353.15 K	1245.5 ± 2.3	1247.5 ± 2.4	1248.7 ± 2.5	1249.9 ± 2.7	1251.1 ± 2.8	1253.4 ± 3.1	1255.6 ± 3.3	1257.8 ± 3.7	1260 ± 4	1262.2 ± 4.3
373.15 K	1231.4 ± 2.3	1232.8 ± 2.4	1234 ± 2.5	1235.2 ± 2.6	1236.4 ± 2.7	1238.8 ± 3	1241.2 ± 3.2	1243.5 ± 3.5	1245.7 ± 3.9	1248 ± 4.2
393.15 K	1218.1 ± 2.3	1219.2 ± 2.4	1220.5 ± 2.5	1221.8 ± 2.6	1223.1 ± 2.7	1225.5 ± 2.9	1227.9 ± 3.2	1230.3 ± 3.4	1232.6 ± 3.7	1234.9 ± 4

CCCCCCCCCCn1cc[n+](C)c1.O=S(=O)([N-]S(=O)(=O)C(F)(F)F)C(F)(F)F
mass density [kg/m3]
Details	100 kPa	2500 kPa	5000 kPa	7500 kPa	10000 kPa	15000 kPa	20000 kPa	25000 kPa	30000 kPa	35000 kPa
293.15 K	1282.4 ± 2.4	1285.6 ± 2.5	1287.4 ± 2.7	1289.3 ± 2.8	1291.1 ± 3	1294.6 ± 3.3	1298.1 ± 3.7	1301.4 ± 4	1304.7 ± 4.5	1308 ± 4.9
298.15 K	1278 ± 2.4	1280.8 ± 2.5	1282.7 ± 2.6	1284.6 ± 2.8	1286.4 ± 2.9	1290 ± 3.3	1293.5 ± 3.6	1297 ± 4	1300.3 ± 4.4	1303.6 ± 4.8
303.15 K	1273.6 ± 2.4	1276.4 ± 2.5	1278.3 ± 2.6	1280.3 ± 2.8	1282.1 ± 2.9	1285.8 ± 3.2	1289.4 ± 3.6	1292.9 ± 4	1296.3 ± 4.4	1299.6 ± 4.8
313.15 K	1265.3 ± 2.4	1267.3 ± 2.5	1269.3 ± 2.6	1271.3 ± 2.7	1273.2 ± 2.9	1277 ± 3.2	1280.7 ± 3.5	1284.2 ± 3.9	1287.7 ± 4.3	1291.1 ± 4.7
333.15 K	1245.5 ± 2.3	1247.7 ± 2.4	1249.8 ± 2.5	1251.9 ± 2.7	1254 ± 2.8	1258 ± 3.1	1261.9 ± 3.4	1265.7 ± 3.7	1269.4 ± 4.1	1273 ± 4.5
353.15 K	1228.6 ± 2.3	1230.9 ± 2.4	1233.2 ± 2.5	1235.5 ± 2.6	1237.6 ± 2.7	1242 ± 3	1246.2 ± 3.3	1250.2 ± 3.6	1254.1 ± 3.9	1257.9 ± 4.3
373.15 K	1209.6 ± 2.3	1212.4 ± 2.4	1214.8 ± 2.4	1217.3 ± 2.5	1219.6 ± 2.7	1224.2 ± 2.9	1228.6 ± 3.2	1232.9 ± 3.5	1237 ± 3.8	1241.1 ± 4.1
393.15 K	1191.8 ± 2.3	1195.8 ± 2.3	1198.3 ± 2.4	1200.9 ± 2.5	1203.4 ± 2.6	1208.2 ± 2.8	1212.8 ± 3.1	1217.3 ± 3.3	1221.7 ± 3.6	1225.9 ± 3.9

CCn1cc[n+](CC)c1.O=S(=O)([N-]S(=O)(=O)C(F)(F)F)C(F)(F)F [1,3-diethylimidazolium bis[(trifluoromethyl)sulfonyl]imide]
mass density [kg/m3]
Details	100 kPa	2500 kPa	5000 kPa	7500 kPa	10000 kPa	15000 kPa	20000 kPa	25000 kPa	30000 kPa	35000 kPa
293.15 K	1469.2 ± 2.8	1471.1 ± 3	1473.1 ± 3.3	1475 ± 3.6	1476.9 ± 3.9	1480.8 ± 4.5	1484.2 ± 5.2	1487.9 ± 6	1491.5 ± 6.8	1495.2 ± 7.6
298.15 K	1463.2 ± 2.8	1465.5 ± 3	1467.6 ± 3.3	1469.5 ± 3.6	1471.4 ± 3.8	1475.3 ± 4.5	1479 ± 5.1	1482.5 ± 5.9	1486.1 ± 6.7	1489.5 ± 7.5
303.15 K	1457.7 ± 2.8	1460.1 ± 3	1462.1 ± 3.3	1463.9 ± 3.5	1466.1 ± 3.8	1469.8 ± 4.4	1473.6 ± 5.1	1477.1 ± 5.9	1480.9 ± 6.6	1484.3 ± 7.4
313.15 K	1447.3 ± 2.7	1449.6 ± 3	1451.6 ± 3.2	1453.7 ± 3.5	1455.8 ± 3.8	1459.7 ± 4.3	1463.5 ± 5	1467.2 ± 5.7	1470.9 ± 6.5	1474.6 ± 7.3
333.15 K	1425.7 ± 2.7	1428.2 ± 2.9	1430.4 ± 3.1	1432.6 ± 3.4	1434.8 ± 3.7	1439.1 ± 4.2	1443.2 ± 4.8	1447.2 ± 5.5	1450.9 ± 6.3	1454.8 ± 7
353.15 K	1404.5 ± 2.7	1407.5 ± 2.8	1409.9 ± 3.1	1412.2 ± 3.3	1414.5 ± 3.6	1419 ± 4.1	1423.4 ± 4.6	1427.5 ± 5.3	1431.6 ± 6	1435.6 ± 6.7
373.15 K	1384.1 ± 2.6	1386.9 ± 2.8	1389.5 ± 3	1391.9 ± 3.2	1394.4 ± 3.5	1399.1 ± 4	1403.7 ± 4.5	1408.1 ± 5.1	1412.4 ± 5.8	1416.7 ± 6.5
393.15 K	1364.2 ± 2.6	1367.2 ± 2.7	1369.9 ± 2.9	1372.5 ± 3.1	1375.1 ± 3.4	1380.2 ± 3.8	1384.9 ± 4.3	1389.6 ± 4.9	1394.3 ± 5.5	1398.6 ± 6.2
